Where two headings read alike, the source gives them in different places. *1 amine or outer side, *2 acyl side, *3 side chain or, on linkers, in order; H or OH if unused. Where a SMILES comes first, the peptide text is derived from it. Bridges are numbered along the chain shown (N, C = ends). [ ]: non-standard residue; d: D form. The star is where a group is joined. pTerphenylCO(4''-OnC5H11) = CCCCCOc1ccc(-c2ccc(-c3ccc(C(=O)*)cc3)cc2)cc1; Orn(4R-OH,5R-OH) = O=C([C@H](C[C@@H](O)[C@@H](O)N[*:3])N[*:1])[*:2]; hTyr(3S-OH,4S-OH) = N[C@H](C(=O)O)[C@H](O)[C@@H](O)c1ccc(O)cc1; Pro(3S-OH,4S-Me) = C[C@H]1CN[C@H](C(=O)O)[C@H]1O; Hyp = O=C(O)[C@@H]1C[C@@H](O)CN1
System: wild-type ZIKV (Ugandan MR766 strain) in Vero cells
Assay: ZIKV cytopathic effect (CPE) inhibition qHTS assay, CellTiter-Glo readout
Format: cell-based, Zika virus
Conditions: for AC50 / Emax: Zika virus, Vero; for Emax: read-out: Max response
[1] = read-out: Log AC50 (M) (converted)
[2] = from Hill fit of the response curve, 50% of maximum activity response, 194 cherry-picked compounds, protocol name not given, read-out: AC50
[3] = potency in log units (Molar) from Hill fit of the response curve, 194 cherry-picked compounds, protocol name not given, read-out: Log AC50 (converted)
[4] = difference between neutral response and maximum compound response

Structure (SMILES) | CC-v2 (curve class classification of the dose response curve) | Efficacy | AC50 | AC50 [1] | other results
Cc1cc(OCCC[S+](C)(=O)[O-])cc(C)c1-c1cccc(COc2ccc3c(c2)OCC3CC(=O)O)c1 (centres unmarked) [NCGC00389617-01] | -3 | -41.849 | 2.31e-05 M | 2.31e-05 M | 
C/C=C/c1ccc2oc(-c3ccc(O)c(OC)c3)c(C)c2c1 [NCGC00385078-01] | -3 | -53.705 | 2.31e-05 M | 2.31e-05 M | 
CCNC(=O)Nc1ccc(-c2nc3c(c(N4CCOC[C@@H]4C)n2)CCN(c2ncccn2)C3)cc1 [NCGC00378864-01] |  | -63.761 | 2.06e-05 M | 2.06e-05 M | 
O=C(O)c1ccc2c(c1)nc(Nc1cccc(Cl)c1)c1ccncc12 [NCGC00485907-01] |  | -41.903 | 6.51e-05 M | 6.51e-05 M | 
C=C(C)C(=O)O[C@H]1[C@H]2C(=C)C(=O)O[C@@H]2C[C@@H](C)[C@@H]2O[C@@H]2C(=O)[C@](C)(O)[C@@H]1OC(=O)C(=C)C [NCGC00169479-03] | -3 | -35.91 | 3.55e-05 M | 3.55e-05 M | 
C[C@@]1(O)[C@H](O)[C@@H](CO)O[C@H]1n1cnc2c(=O)[nH]c(N)nc21 [NCGC00485409-01] |  | -27.977 | 3.66e-05 M | 3.66e-05 M | 
Cc1cc(C)c(-c2csc(NC(=O)c3ccccc3)n2)c(C)c1 [NCGC00386342-01] |  | -75.252 | 2.31e-05 M |  | Curve class: -3; AC50 (read-out: Log AC50 (converted)): 2.31e-05 M; Emax: 8.19%
Cn1cc(-c2ccncc2)c(-c2ccc(OCc3ccc4ccccc4n3)cc2)n1 [NCGC00346630-05] |  | -23.654 | 2.59e-05 M | 2.59e-05 M | 
CCCCCOc1ccc(-c2ccc(-c3ccc(C(=O)N[C@H]4C[C@@H](O)[C@@H](O)NC(=O)[C@@H]5[C@@H](O)[C@@H](C)CN5C(=O)[C@H]([C@@H](C)O)NC(=O)[C@H]([C@H](O)[C@@H](O)c5ccc(O)cc5)NC(=O)[C@@H]5C[C@@H](O)CN5C(=O)[C@H]([C@@H](C)O)NC4=O)cc3)cc2)cc1 [NCGC00386349-01] ({pTerphenylCO(4''-OnC5H11)}-[Orn(4R-OH,5R-OH)]T[Hyp][hTyr(3S-OH,4S-OH)]T[Pro(3S-OH,4S-Me)]; lactam 1-C) | -2.2 | -31.74 | 1.26e-05 M | 1.26e-05 M | 
CC(=O)CC1CCC(C(C)C(=O)OCC(O)CO)O1 (centres unmarked) [NCGC00381119-01] | -3 | -53.159 | 2.91e-05 M | 2.91e-05 M | 
CN1CC2CN(c3ccc4oc5ccccc5c(=O)c4c3)CC2C1 (centres unmarked) [NCGC00371020-01] |  | -29.929 | 3.17e-05 M | 3.17e-05 M | 
CC1=CC2/C=C(\C)CCC(O)C3OC(C)(C)OC3CC(=O)OC23C(=O)NC(CC(C)C)C3C1C (centres unmarked) [NCGC00381131-01] | -3 | -69.811 | 1.42e-05 M | 1.42e-05 M | 
C[C@@H]1C[C@@H]([C@@H](O)C(C)(C)O)O[C@H]2C[C@@]3(C)C(=C12)C[C@H](O)[C@H]1[C@@]2(C)CCC(=O)C(C)(C)C2CC[C@@]13C (some centres unmarked) [NCGC00384870-01] | -3 | -67.591 | 1.59e-05 M | 1.59e-05 M | 
CO[C@H]1[C@H](O)[C@H](O[C@H]2CC[C@]3(C)C4CC[C@]5(C)[C@H](C6=CC(=O)OC6)CC[C@]5(O)C4CC[C@@H]3C2)O[C@@H](C)[C@@H]1O (some centres unmarked) [NCGC00180641-02] |  | -18.714 | 1e-06 M | 1e-06 M | 
CCC(C)C(=O)OC1CC(O)C23C4OCC5(C(O)CC2C1(C)C(O)O4)C3C(=O)CC1(C)C(c2ccoc2)CC2OC215 (centres unmarked) [NCGC00381227-01] |  |  |  |  | AC50 [2]: 6.32e-06 M; AC50 [3]: 6.32e-06 M; CC-v2 (curve class classification of the dose response curve) (curve class v2 (Inglese et al. 2006)): -2.2; Efficacy [4]: -29.737
CC(C)(O)C(O)C(=O)OCc1ccc(O[C@@H]2O[C@H](CO)[C@@H](O)[C@H](O)[C@H]2O)cc1 (some centres unmarked) [NCGC00381128-01] | -3 | -65.299 | 1e-05 M | 1e-05 M | 
CC(C)C(=O)c1cn(CC(=O)COc2ccc(Oc3ccccc3)cc2)c2ccc(C(=O)O)cc12 [NCGC00378619-01] |  | -17.195 | 1.3e-05 M | 1.3e-05 M | 
C=CC/C=C\C/C=C\CCCCCCCc1cc(O)cc(O)c1 [NCGC00168928-02] |  | -22.946 | 4.53e-05 M | 4.53e-05 M | 
C=C1C(=O)O[C@@H]2C3C(=C(C)[C@@H](O)[C@@H](OC(=O)/C(=C/C)COC(C)=O)[C@@H]12)C(=O)[C@H]1O[C@@]31C (some centres unmarked) [NCGC00168883-03] | -2.1 | -116.882 | 3.17e-05 M | 3.17e-05 M | 

Structure (SMILES) | CC-v2 (curve class classification of the dose response curve) | Efficacy | AC50 | AC50 [1] | other results
Cc1cc2sc(NC(=O)Cc3ccccc3)nc2cc1Cl [NCGC00371143-05] |  | -24.072 | 5.8e-05 M | 5.8e-05 M | 
C=C[C@H]1[C@H](O[C@@H]2O[C@H](CO)[C@@H](O)[C@H](O)[C@H]2O)OC=C(C(=O)OC)[C@H]1CCO [NCGC00384878-01] | -3 | -80.569 | 2.02e-05 M | 2.02e-05 M | 
Cc1cc(C(=O)Nc2cccc(C(=O)Nc3cccc(C(F)(F)F)c3)c2)on1 [NCGC00387256-02] |  | -18.226 | 7.31e-05 M | 7.31e-05 M | 
CC(C)(O)CCc1ccc(OCc2cc(-c3cccc(OC(F)F)c3)c3ncccc3c2)cc1 [NCGC00249759-02] |  | -26.837 | 3.26e-05 M | 3.26e-05 M | 
C=C1C(=O)O[C@@H]2/C=C(\CO)CC/C=C(/C=O)C[C@H](O)[C@@H]12 [NCGC00385803-01] |  | -41.449 | 6.51e-05 M |  | Curve class: -3; AC50 (read-out: Log AC50 (converted)): 6.51e-05 M; Emax: -37.5%
O=S(=O)(c1ccc(S(=O)(=O)n2cnc3ccccc32)cc1)N1CCCCCC1 [MLS000033224-02] | -3 | -29.668 | 3.17e-05 M | 3.17e-05 M | 
C/C=C(\C)C(=O)OC1CC2C(CC=C3CC(OC4CC(OC)C(OC5CC(OC)C(OC6CC(OC)C(OC7CC(OC)C(OC8CC(OC)C(OC9OC(CO)C(O)C(O)C9O)C(C)O8)C(C)O7)C(C)O6)C(C)O5)C(C)O4)CCC32C)C2(O)CCC(C(C)=O)C12C (centres unmarked) [NCGC00381127-01] |  |  |  |  | AC50 (primary qHTS curve fit, 194 cherry-picked compounds, log10 of molar AC50, read-out: Log AC50 (converted)): 4.36e-06 M; AC50 (primary qHTS curve fit, values match uM against the Log AC50 column, read-out: AC50): 4.36e-06 M; Emax (response at highest concentration): 4.53%; Curve class (qHTS curve class, negative sign = inhibitory curve): -3
CC(/C=C/C=C(\C)C(=O)O[C@@H]1O[C@H](CO[C@@H]2O[C@H](CO)[C@@H](O)[C@H](O)[C@H]2O)[C@@H](O)[C@H](O)[C@H]1O)=C\C=C\C=C(C)\C=C\C=C(/C)C(=O)O[C@@H]1C[C@](O)(C(=O)O)C[C@@H](O)[C@H]1OC(=O)/C=C/c1ccc(O)c(O)c1 [NCGC00384868-01] | -3 | -78.383 | 6.93e-06 M | 6.93e-06 M | 
COc1ccc(CCN(C)CCCC(C#N)(c2ccc(OC)c(OC)c2)C(C)C)cc1OC (centres unmarked) [NCGC00016083, Verapamil, reference compound] |  |  |  |  | Identified as active in CPE assay validation set: identified
O=c1c2ccccc2nc2n1CCc1c-2[nH]c2ccccc12 [NCGC00015892-08] | -2.2 | -34.451 | 4.11e-05 M | 4.11e-05 M | 
CCN(CC)C(=O)Nc1ccc(OCC(O)CNC(C)(C)C)c(C(C)=O)c1 (centres unmarked) [NCGC00344562-02] | -3 | -33.868 | 3.26e-05 M | 3.26e-05 M | 
CC1=CC(=O)[C@@H](O)[C@]2(C)C3[C@@H](O)[C@@H]4OC(=O)[C@@H]([C@H]4C)[C@]3(C)C(=O)[C@H](O)[C@@H]12 (some centres unmarked) [NCGC00384766-01] |  |  |  |  | AC50 [2]: 9.04e-06 M; AC50 [3]: 9.04e-06 M; Efficacy [4]: -50.694
CN(CC[C@H](N)CC(=O)N[C@H]1C=C[C@@H](n2ccc(N)nc2=O)O[C@@H]1C(=O)O)C(=N)N [NCGC00386414-01] | -1.1 | -84.972 | 2.66e-06 M | 2.66e-06 M | 
CN1CCC(COc2cnc(-c3cccc(Cn4nc(-c5cccc(C#N)c5)ccc4=O)c3)nc2)CC1 [NCGC00345793-08] |  | -35.437 | 6.51e-05 M | 6.51e-05 M | 
C=CC(C)(O)CC[C@@H]1[C@@]2(C)CCCC(C)(C)C2CC[C@@]1(C)O (some centres unmarked) [NCGC00386171-01] |  | -26.101 | 5.8e-05 M | 5.8e-05 M | 
CCCOc1ccc([S+](=O)([O-])N2CCN(CCO)CC2)cc1-c1nc2c(CCC)cn(CC)c2c(=O)[nH]1 [NCGC00378703-02] |  | -30.503 | 5.8e-05 M | 5.8e-05 M | 
CC1CCC2C(=CCC(O)C2(C)C)C1(C)Cc1c(O)cc(CO)c(C=O)c1O (centres unmarked) [NCGC00380764-01] | -2.2 | -71.029 | 4.04e-05 M | 4.04e-05 M | 
C[C@H]1CC[C@@]2(OC1)O[C@H]1CC3[C@@H]4CC[C@@H]5C[C@@H](O[C@@H]6O[C@H](CO)[C@@H](O[C@@H]7O[C@H](CO[C@@H]8OC[C@@H](O)[C@H](O)[C@H]8O)[C@@H](O[C@@H]8O[C@H](CO)[C@H](O)[C@H](O)[C@H]8O)[C@H](O)[C@H]7O)[C@H](O)[C@H]6O)CC[C@]5(C)C4CC[C@]3(C)[C@H]1[C@@H]2C (some centres unmarked) [NCGC00385658-01] |  |  |  |  | AC50 [2]: 3.48e-06 M; AC50 [3]: 3.48e-06 M; Efficacy [4]: -25.029

From paper PMC8765781, “A platform of assays for the discovery of anti-Zika small-molecules with activity in a 3D-bioprinted outer-blood-retina model” (PLoS ONE, 2022)
